According to patent US9512120B2, “Microbicidally active imidazopyridine derivatives” (Syngenta Participations AG, priority 2013, dated 2016):

Legend:
[1] = tested on: Mycosphaerella graminicola (Septoria tritici); experiment: Mycosphaerella graminicola (Septoria tritici) / liquid culture (Septoria blotch); type: cell-based; conditions: Zymoseptoria tritici, PDB, 24° C., 4-5 days after application, read-out: control of Mycosphaerella graminicola (inhibition of growth, photometric)
Procedure: (§1) Mycosphaerella graminicola (Septoria tritici)/Liquid Culture (Septoria Blotch): Conidia of the fungus from cryogenic storage were directly mixed into nutrient broth (PDB potato dextrose broth). After placing a DMSO solution of test compound into a 96-well microtiter plate at an application rate of 200 ppm, the nutrient broth containing the fungal spores was added. The test plates were incubated at 24° C. and the inhibition of growth was determined photometrically 4-5 days after application.

Pyrenophora teres = Pyrenophora teres / barley / leaf disc preventative (net blotch); type: in vivo; conditions: foliar, barley leaf segments cv Hasso, inoculated two days after application, assessed 5-7 days after application, read-out: control of Pyrenophora teres (disease control compared to untreated)
Procedure: Pyrenophora Teres/Barley/Leaf Disc Preventative (Net Blotch): Barley leaf segments cv Hasso are placed on agar in a 24-well plate and sprayed with formulated test compound diluted in water at an application rate of 200 ppm. The leaf segments are inoculated with a spore suspension of the fungus two days after application of the test solution. The inoculated leaf segments are incubated at 20° C. and 65% relative humidity under a light regime of 12/12 h (light/dark) in a climate cabinet and the activity of a compound is assessed as disease control compared to untreated when an appropriate level of disease damage appears in untreated check leaf segments (5-7 days after application).

[2] = tested on: Thanatephorus cucumeris (Rhizoctonia solani); experiment: Thanatephorus cucumeris (Rhizoctonia solani) / liquid culture (foot rot, damping-off); type: cell-based; conditions: PDB, 24° C., 3-4 days after application, read-out: control of Thanatephorus cucumeris (inhibition of growth, photometric)
Procedure: Thanatephorus cucumeris (Rhizoctonia solani)/Liquid Culture (Foot Rot, Damping-Off): Mycelia fragments of a newly grown liquid culture of the fungus are directly mixed into nutrient broth (PDB potato dextrose broth). After placing a DMSO solution of the test compounds into a 96-well microtiter plate at an application rate of 200 ppm, the nutrient broth containing the fungal material was added. The test plates were incubated at 24° C. and the inhibition of growth was determined photometrically 3-4 days after application.

[3] = tested on: Botryotinia fuckeliana (Botrytis cinerea); experiment: Botryotinia fuckeliana (Botrytis cinerea) / liquid culture (gray mould); type: cell-based; conditions: Vogels broth, 24° C., 3-4 days after application, read-out: control of Botryotinia fuckeliana (inhibition of growth, photometric)
Procedure: as §1, with “Botryotinia Fuckeliana (Botrytis cinerea)/Liquid” for “Mycosphaerella graminicola (Septoria tritici)/Liquid”, “(Gray Mould):” for “(Septoria Blotch):”, “(Vogels” for “(PDB potato dextrose”, “3-4” for “4-5”

[4] = tested on: Puccinia recondita f. sp. Tritici; experiment: Puccinia recondita f. sp. tritici / wheat / leaf disc preventative (brown rust); type: in vivo; conditions: foliar, wheat leaf segments cv Kanzler, inoculated 1 day after application, assessed 7-9 days after application, read-out: control of Puccinia recondita f. sp. Tritici (percent disease control compared to untreated)
Procedure: Puccinia recondita f. Sp. Tritici/Wheat/Leaf Disc Preventative (Brown Rust): Wheat leaf segments cultivated variety (cv) Kanzler were placed on agar in 24-well plates and sprayed with formulated test compound diluted in water at an application rate of 200 ppm. The leaf disks were inoculated with a spore suspension of the fungus 1 day after application. The inoculated leaf segments were incubated at 19° C. and 75% relative humidity under a light regime of 12/12 h (light/dark) in a climate cabinet and the activity of a compound was assessed as percent disease control compared to untreated when an appropriate level of disease damage appears in untreated check leaf segments (7-9 days after application).

| SMILES | inhibition at 20 ppm [1] [%] | pest or weed control at 200 ppm (Pyrenophora teres) [%] | inhibition at 20 ppm [2] [%] | inhibition at 20 ppm [3] [%] | pest or weed control at 200 ppm [4] [%] |
| --- | --- | --- | --- | --- | --- |
| Nc1ncnn1-c1nc2cncc(-c3ccc(Cl)cc3Cl)c2n1C1CC1 [Compound 119, 2-[1-cyclopropyl-7-(2,4-dichlorophenyl)imidazo[4,5-c]pyridin-2-yl]-1,2,4-triazol-3-amine] | ≥ 80 | ≥ 80 | ≥ 80 | – | – |
| CCn1c(-n2ncnc2N)nc2cncc(-c3ccc(C(F)(F)F)nc3)c21 [Compound 63, 2-[1-ethyl-7-[6-(trifluoromethyl)pyridin-3-yl]imidazo[4,5-c]pyridin-2-yl]-1,2,4-triazol-3-amine] | – | ≥ 80 | ≥ 80 | – | – |
| CCn1c(-n2ncnc2N2C(=O)CCC2=O)nc2cncc(C(C)=O)c21 [Compound 113, 1-[2-(7-acetyl-1-ethylimidazo[4,5-c]pyridin-2-yl)-1,2,4-triazol-3-yl]pyrrolidine-2,5-dione] | – | ≥ 80 | – | – | – |
| CCn1c(-n2ncnc2N)nc2cncc(-c3ccc(OC)c(F)c3)c21 [Compound 43, 2-[1-ethyl-7-(3-fluoro-4-methoxyphenyl)imidazo[4,5-c]pyridin-2-yl]-1,2,4-triazol-3-amine] | ≥ 80 | ≥ 80 | ≥ 80 | ≥ 80 | – |
| CCn1c(-n2ncnc2N)nc2cncc(-c3cccnc3OC)c21 [Compound 58, 2-[1-ethyl-7-(2-methoxypyridin-3-yl)imidazo[4,5-c]pyridin-2-yl]-1,2,4-triazol-3-amine] | – | ≥ 80 | ≥ 80 | – | – |
| CCOC(=O)C(C)O/N=C(\C)c1cncc2nc(-n3ncnc3N)n(CC)c12 (centres unmarked) [Compound 159] | – | – | ≥ 80 | – | – |
| CCn1c(-n2ncnc2N)nc2cncc(-c3ccccc3C(F)(F)F)c21 [Compound 32, 2-[1-ethyl-7-[2-(trifluoromethyl)phenyl]imidazo[4,5-c]pyridin-2-yl]-1,2,4-triazol-3-amine] | – | ≥ 80 | ≥ 80 | – | – |
| Nc1ncnn1-c1nc2cncc(-c3ccccc3Cl)c2n1C1CCCCC1 [Compound 126, 2-[7-(2-chlorophenyl)-1-cyclohexylimidazo[4,5-c]pyridin-2-yl]-1,2,4-triazol-3-amine] | – | – | – | ≥ 80 | – |
| C=C(C)CO/N=C(\C)c1cncc2nc(-n3ncnc3N)n(CC)c12 [Compound 179] | ≥ 80 | – | ≥ 80 | ≥ 80 | – |
| CCn1c(-n2ncnc2N)nc2cncc(-c3ccc(C)c([N+](=O)[O-])c3)c21 [Compound 44, 2-[1-ethyl-7-(4-methyl-3-nitrophenyl)imidazo[4,5-c]pyridin-2-yl]-1,2,4-triazol-3-amine] | – | – | ≥ 80 | – | – |
| CCn1c(-n2ncnc2N)nc2cncc(-c3cccc(C(F)(F)F)c3)c21 [Compound 31, 2-[1-ethyl-7-[3-(trifluoromethyl)phenyl]imidazo[4,5-c]pyridin-2-yl]-1,2,4-triazol-3-amine] | – | ≥ 80 | ≥ 80 | ≥ 80 | – |
| CCn1c(-n2ncnc2N)nc2cncc(/C(C)=N/OCC(C)C)c21 [Compound 162] | ≥ 80 | – | ≥ 80 | – | ≥ 80 |
| CCn1c(-n2ncnc2N)nc2cncc(C(C)=NOCc3cc(Cl)c(Cl)cc3Cl)c21 [Compound 164] | ≥ 80 | ≥ 80 | ≥ 80 | – | – |
| CCn1c(-n2ncnc2N)nc2cncc(-c3ccc(Cl)c(C(F)(F)F)c3)c21 [Compound 49] | ≥ 80 | ≥ 80 | ≥ 80 | ≥ 80 | – |
| CCn1c(-n2ncnc2N)nc2cncc(C(C)=NOc3ccccc3)c21 [Compound 168] | ≥ 80 | ≥ 80 | ≥ 80 | – | ≥ 80 |
| CCn1c(-n2ncnc2N)nc2cncc(-c3ccc(C)c(C)c3)c21 [Compound 46, 2-[7-(3,4-dimethylphenyl)-1-ethylimidazo[4,5-c]pyridin-2-yl]-1,2,4-triazol-3-amine] | ≥ 80 | – | ≥ 80 | ≥ 80 | – |
| CCn1c(-n2ncnc2N)nc2cncc(/C(C)=N/OC(C)C)c21 [Compound 167] | ≥ 80 | ≥ 80 | ≥ 80 | – | ≥ 80 |
| Cc1cncc2nc(-n3ncnc3N)n(C3CC3)c12 [Compound 175, 2-(1-cyclopropyl-7-methyl-imidazo[4,5-c]pyridin-2-yl)-1,2,4-triazol-3-amine] | – | ≥ 80 | – | – | – |
| CCn1c(-n2ncnc2N)nc2cncc(-c3cnc(Cl)c(C)c3)c21 [Compound 65, 2-[7-(6-chloro-5-methylpyridin-3-yl)-1-ethylimidazo[4,5-c]pyridin-2-yl]-1,2,4-triazol-3-amine] | – | ≥ 80 | ≥ 80 | – | – |
| Nc1ncnn1-c1nc2cncc(-c3ccccc3Cl)c2n1C1CC1 [Compound 125, 2-[7-(2-chlorophenyl)-1-cyclopropylimidazo[4,5-c]pyridin-2-yl]-1,2,4-triazol-3-amine] | – | – | ≥ 80 | – | – |
| CCn1c(-n2ncnc2N)nc2cncc(C=Cc3ccc(C)cc3)c21 [Compound 71, 2-[1-ethyl-7-[2-(4-methylphenyl)ethenyl]imidazo[4,5-c]pyridin-2-yl]-1,2,4-triazol-3-amine] | – | – | ≥ 80 | – | – |
| CCn1c(-n2ncnc2N)nc2cncc(-c3cc(C)c(OC)c(C)c3)c21 [Compound 47, 2-[1-ethyl-7-(4-methoxy-3,5-dimethylphenyl)imidazo[4,5-c]pyridin-2-yl]-1,2,4-triazol-3-amine] | – | ≥ 80 | ≥ 80 | – | ≥ 80 |
| CCn1c(-n2ncnc2N)nc2cncc(-c3cc(C)sc3C)c21 [Compound 52, 2-[7-(2,5-dimethylthiophen-3-yl)-1-ethylimidazo[4,5-c]pyridin-2-yl]-1,2,4-triazol-3-amine] | ≥ 80 | – | ≥ 80 | ≥ 80 | – |
| CCn1c(-n2ncnc2N)nc2cncc(-c3cc4ccccc4o3)c21 [Compound 51, 2-[7-(1-benzofuran-2-yl)-1-ethylimidazo[4,5-c]pyridin-2-yl]-1,2,4-triazol-3-amine] | – | ≥ 80 | ≥ 80 | – | – |
| CCn1c(-n2ncnc2N)nc2cncc(-c3ccc(Cl)c(Cl)c3)c21 [Compound 36, 2-[7-(3,4-dichlorophenyl)-1-ethylimidazo[4,5-c]pyridin-2-yl]-1,2,4-triazol-3-amine] | ≥ 80 | ≥ 80 | ≥ 80 | – | ≥ 80 |
| CCn1c(-n2ncnc2N)nc2cncc(C=CC3CCCCC3)c21 [Compound 70, 2-[7-(2-cyclohexylethenyl)-1-ethylimidazo[4,5-c]pyridin-2-yl]-1,2,4-triazol-3-amine] | ≥ 80 | ≥ 80 | – | – | – |
| CCn1c(-n2ncnc2N2C(=O)CCC2=O)nc2cncc(-c3ccc(Cl)cc3Cl)c21 [Compound 114] | – | ≥ 80 | – | – | – |
| CCn1c(-n2ncnc2N)nc2cncc(-c3cccc(Cl)c3)c21 [Compound 34, 2-[7-(3-chlorophenyl)-1-ethylimidazo[4,5-c]pyridin-2-yl]-1,2,4-triazol-3-amine] | ≥ 80 | ≥ 80 | ≥ 80 | ≥ 80 | – |
